Measurements as given in patent publication US20160002248A1, “GLS1 INHIBITORS FOR TREATING DISEASE” (Board of Regents, The University of Texas System, priority 2014, published 2016).

What was measured:
[1] = target: T1, purified recombinant human GAC (GLS1) (Homo sapiens, UniProt O94925); test: GLS1 Enzymatic Activity Assay (dual-coupled enzymatic assay); assay type: biochemical
T1 sequence (O94925 55-598 isoform O94925-3 limits assumed): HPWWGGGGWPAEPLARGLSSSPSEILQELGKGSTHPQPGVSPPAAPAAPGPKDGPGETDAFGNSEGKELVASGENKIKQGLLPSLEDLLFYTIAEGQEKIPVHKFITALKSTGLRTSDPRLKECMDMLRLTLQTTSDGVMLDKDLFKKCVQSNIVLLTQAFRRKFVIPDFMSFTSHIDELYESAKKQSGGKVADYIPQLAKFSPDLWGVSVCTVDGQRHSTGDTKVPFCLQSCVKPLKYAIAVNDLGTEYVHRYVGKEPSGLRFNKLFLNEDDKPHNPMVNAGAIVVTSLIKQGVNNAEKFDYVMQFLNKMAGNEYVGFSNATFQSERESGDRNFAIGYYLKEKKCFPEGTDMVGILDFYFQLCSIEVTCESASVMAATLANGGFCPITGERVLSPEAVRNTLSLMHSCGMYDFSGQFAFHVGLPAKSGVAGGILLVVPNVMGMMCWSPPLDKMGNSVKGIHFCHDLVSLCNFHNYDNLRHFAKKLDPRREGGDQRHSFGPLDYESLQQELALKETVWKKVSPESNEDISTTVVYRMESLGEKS
In short: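 GAC activity measured by coupling glutamate to glutamate oxidase and HRP, generating resorufin from Amplex UltraRed. Enzyme (2 nM) preincubated with 50 mM potassium phosphate 10 min at room temperature, then inhibitor 10 min; 1 mM glutamine substrate, 1% DMSO. Fluorescence 530/590 nm, kinetic or 20-min endpoint; IC50 from four-parameter logistic fit.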

A549 cells = test: Proliferation Assay (A549 cell viability, Cell Titer Fluor); assay type: cell-based; settings: Homo sapiens, 72 hours
In short: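 A549 cells in RPMI 1640 with 10% dialyzed FBS were seeded at 1000 cells/well, grown 24 h, then exposed to compound (0.5% DMSO final) for 72 h at 37 °C, 5% CO2. Viability was read by Cell Titer Fluor fluorescence; EC50 from four-parameter logistic fit.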

Cc1ccc(CNC(=O)c2cn(CCCCc3cc4cc(-c5cccc(C(F)(F)F)c5)[nH]c4nn3)nn2)cn1 [Example 203, N-[(6-methylpyridin-3-yl)methyl]-1-(4-{6-[3-(trifluoromethyl)phenyl]-7H-pyrrolo[2,3-c]pyridazin-3-yl}butyl)-1H-1,2,3-triazole-4-carboxamide]
IC50 [1]: < 100 nM
EC50 (A549 cells): 100 to 500 nM

O=C(NCc1cc(OC(F)(F)F)ccc1F)c1cn(CCCCc2cc3cc(C4CCNCC4)[nH]c3nn2)nn1 [Example 155, N-{[2-fluoro-5-(trifluoromethoxy)phenyl]methyl)-1-{4-[6-(piperidin-4-yl)-7H-pyrrolo[2,3-c]pyridazin-3-yl]butyl)-1H-1,2,3-triazole-4-carboxamide]
IC50 [1]: 100 to 500 nM
EC50 (A549 cells): 500 to 5000 nM

Cc1ccc(CNC(=O)c2cn(CCCCc3cc4cc(Cc5ccccc5)[nH]c4nn3)nn2)cn1 [Example 92, 1-(4-{6-benzyl-7H-pyrrolo[2,3-c]pyridazin-3-yl}butyl)-N-[(6-methylpyridin-3-yl)methyl]-1H-1,2,3-triazole-4-carboxamide]
IC50 [1]: < 100 nM
EC50 (A549 cells): 100 to 500 nM

CC(C)OC(=O)N1CC(c2cc3cc(CCCCn4cc(C(=O)NCc5cc(OC(F)(F)F)ccc5F)nn4)nnc3[nH]2)C1 [Example 131, propan-2-yl 3-(3-{4-[4-({[2-fluoro-5-(trifluoromethoxy)phenyl]methyl}carbamoyl)-1H-1,2,3-triazol-1-yl]butyl}-7H-pyrrolo[2,3-c]pyridazin-6-yl)azetidine-1-carboxylate]
IC50 [1]: < 100 nM
EC50 (A549 cells): < 100 nM

O=C(NCc1cccc(OC(F)(F)F)c1)c1cn(CCCCc2cc3c(-c4ccccn4)c(-c4ccccc4F)[nH]c3nn2)nn1 [Example 175, 1-{4-[6-(2-fluorophenyl)-5-(pyridin-2-yl)-7H-pyrrolo[2,3-c]pyridazin-3-yl]butyl}-N-{[3-(trifluoromethoxy)phenyl]methyl}-1H-1,2,3-triazole-4-carboxamide]
IC50 [1]: < 100 nM
EC50 (A549 cells): 500 to 5000 nM

Cc1ccc(CNC(=O)c2cn(CCCCc3cc4cc(-c5ccccc5F)[nH]c4nn3)nn2)cn1 [Example 190, 1-{4-[6-(2-fluorophenyl)-7H-pyrrolo[2,3-c]pyridazin-3-yl]butyl}-N-[(6-methylpyridin-3-yl)methyl]-1H-1,2,3-triazole-4-carboxamide]
IC50 [1]: < 100 nM
EC50 (A549 cells): < 100 nM

N#CCC(=O)N1CC(c2cc3cc(CCCCn4cc(C(=O)NCc5cc(OC(F)(F)F)ccc5F)nn4)nnc3[nH]2)C1 [Example 140, 1-(4-{6-[1-(2-cyanoacetyl)azetidin-3-yl]-7H-pyrrolo[2,3-c]pyridazin-3-yl}butyl)-N-{[2-fluoro-5-(trifluoromethoxy)phenyl]methyl}-1H-1,2,3-triazole-4-carboxamide]
IC50 [1]: < 100 nM
EC50 (A549 cells): 500 to 5000 nM

O=C(Nc1nnc(CCCCc2cc3cc(Cc4ccccc4)[nH]c3nn2)s1)[C@H](O)c1ccccc1 [Example 60, (2R)-N-[5-(4-(6-benzyl-7H-pyrrolo[2,3-c]pyridazin-3-yl}butyl)-1,3,4-thiadiazol-2-yl]-2-hydroxy-2-phenylacetamide]
IC50 [1]: < 100 nM
EC50 (A549 cells): 500 to 5000 nM

CC(C)(C)OC(=O)N1CC(c2cc3cc(CCCCn4cc(C(=O)NCc5cc(C(F)(F)F)ccn5)nn4)nnc3[nH]2)C1 [Example 194, tert-butyl 3-(3-{4-[4-({[4-(trifluoromethyl)pyridin-2-yl]methyl}carbamoyl)-1H-1,2,3-triazol-1-yl]butyl}-7H-pyrrolo[2,3-c]pyridazin-6-yl)azetidine-1-carboxylate]
IC50 [1]: < 100 nM
EC50 (A549 cells): < 100 nM

O=C(NCc1cccnc1)c1cn(CCCCc2cc3cc(C4CC4)[nH]c3nn2)nn1 [Example 36, 1-(4-{6-cyclopropyl-7H-pyrrolo[2,3-c]pyridazin-3-yl}butyl)-N-(pyridin-3-ylmethyl)-1H-1,2,3-triazole-4-carboxamide]
IC50 [1]: 100 to 500 nM
EC50 (A549 cells): 100 to 500 nM

O=C(NCc1ncccn1)c1cn(CCCCc2cc3cc(C4CC4)[nH]c3nn2)nn1 [Example 38, 1-(4-{6-cyclopropyl-7H-pyrrolo[2,3-c]pyridazin-3-yl}butyl)-N-(pyrimidin-2-ylmethyl)-1H-1,2,3-triazole-4-carboxamide]
IC50 [1]: 500 to 5000 nM
EC50 (A549 cells): 500 to 5000 nM

O=C(NCc1ccccn1)c1cn(CCCCc2cc3c(-c4cncnc4)c(C4CC4)[nH]c3nn2)nn1 [Example 129, 1-(4-(6-cyclopropyl-5-(pyrimidin-5-yl)-7H-pyrrolo[2,3-c]pyridazin-3-yl)butyl)-N-(pyridin-2-ylmethyl)-1H-1,2,3-triazole-4-carboxamide]
IC50 [1]: 100 to 500 nM
EC50 (A549 cells): 500 to 5000 nM

Cc1ccc(CNC(=O)c2cn(CCCCc3cc4c(-c5cccc(C(F)(F)F)c5)c(C5CC5)[nH]c4nn3)nn2)cn1 [Example 167, 1-(4-{6-cyclopropyl-5-[3-(trifluoromethyl)phenyl]-7H-pyrrolo[2,3-c]pyridazin-3-yl}butyl)-N-[(6-methylpyridin-3-yl)methyl]-1H-1,2,3-triazole-4-carboxamide]
IC50 [1]: < 100 nM
EC50 (A549 cells): 100 to 500 nM

O=C(NCc1cc(OC(F)(F)F)ccc1F)c1cn(CCCCc2cc3c(-c4ccncc4)c(C4CC4)[nH]c3nn2)nn1 [Example 128, 1-{4-[6-cyclopropyl-5-(pyridin-4-yl)-7H-pyrrolo[2,3-c]pyridazin-3-yl]butyl)-N-{[2-fluoro-5-(trifluoromethoxy)phenyl]methyl}-1H-1,2,3-triazole-4-carboxamide]
IC50 [1]: < 100 nM
EC50 (A549 cells): < 100 nM

CC(C)(C)c1cc2cc(CCCCn3ccc(NC(=O)Cc4ccccc4)cc3=O)nnc2[nH]1 [Example 30, N-[1-(4-{6-tert-butyl-7H-pynolo[2,3-c]pyridazin-3-yl}butyl)-2-oxo-1,2-dihydropyridin-4-yl]-2-phenylacetamide]
IC50 [1]: 100 to 500 nM
EC50 (A549 cells): 500 to 5000 nM

O=C(NCc1ccc(C(F)(F)F)nc1)c1cn(CCCCc2cc3c(C4CC4)c(C4CC4)[nH]c3nn2)nn1 [Example 207, 1-(4-{5,6-dicyclopropyl-7H-pyrrolo[2,3-c]pyridazin-3-yl}butyl)-N-{[6-(trifluoromethyl)pyridin-3-yl]methyl}-1H-1,2,3-triazole-4-carboxamide]
IC50 [1]: < 100 nM
EC50 (A549 cells): 100 to 500 nM

Cc1ccc(CNC(=O)c2cn(CCCCc3cc4cc(C5CN(C(=O)OC(C)(C)C)C5)[nH]c4nn3)nn2)cn1 [Example 94, tert-butyl 3-{3-[4-(4-{[(6-methylpyridin-3-yl)methyl]carbamoyl}-1H-1,2,3-triazol-1-yl)butyl]-7H-pyrrolo[2,3-c]pyridazin-6-yl}azetidine-1-carboxylate]
IC50 [1]: < 100 nM
EC50 (A549 cells): 100 to 500 nM

Cc1ccc(CNC(=O)c2cn(CCCCc3cc4cc(C5CNC5)[nH]c4nn3)nn2)cn1 [Example 97, 1-{4-[6-(azetidin-3-yl)-7H-pyrrolo[2,3-c]pyridazin-3-yl]butyl}-N-[(6-methylpyridin-3-yl)methyl]-1H-1,2,3-triazole-4-carboxamide]
IC50 [1]: 100 to 500 nM
EC50 (A549 cells): 500 to 5000 nM

O=C(NCc1cccnc1)c1nnc(CCCCc2cc3cc(Cc4ccccc4)[nH]c3nn2)s1 [Example 76, 5-(4-{6-benzyl-7H-pyrrolo[2,3-c]pyridazin-3-yl}butyl)-N-(pyridin-3-ylmethyl)-1,3,4-thiadiazole-2-carboxamide]
IC50 [1]: < 100 nM
EC50 (A549 cells): 100 to 500 nM

COc1cccc(-c2cc3cc(CCCCn4cc(C(=O)NCc5ccc(C)nc5)nn4)nnc3[nH]2)c1 [Example 176, 1-{4-[6-(3-methoxyphenyl)-7H-pyrrolo[2,3-c]pyridazin-3-yl]butyl}-N-[(6-methylpyridin-3-yl)methyl]-1H-1,2,3-triazole-4-carboxamide]
IC50 [1]: < 100 nM
EC50 (A549 cells): 100 to 500 nM

O=C(Cc1ccccc1)Nc1ccn(CCCCc2cc3cc(Cc4ccccc4)[nH]c3nn2)c(=O)n1 [Example 62, N-[1-(4-{6-benzyl-7H-pyrrolo[2,3-c]pyridazin-3-yl}butyl)-2-oxo-1,2-dihydropyrimidin-4-yl]-2-phenylacetamide]
IC50 [1]: < 100 nM
EC50 (A549 cells): 500 to 5000 nM

CC(C)COC(=O)N1CC(c2cc3cc(CCCCn4cc(C(=O)NCc5cc(OC(F)(F)F)ccc5F)nn4)nnc3[nH]2)C1 [Example 185, 2-methylpropyl 3-(3-{4-[4-({[2-fluoro-5-(trifluoromethoxy)phenyl]methyl}carbamoyl)-1H-1,2,3-triazol-1-yl]butyl)-7H-pyrrolo[2,3-c]pyridazin-6-yl)azetidine-1-carboxylate]
IC50 [1]: < 100 nM
EC50 (A549 cells): < 100 nM

Cc1ccc(CNC(=O)c2cn(CCCCc3cc4c(-c5ccc6c(c5)OCO6)c(C5CC5)[nH]c4nn3)nn2)cn1 [Example 146, 1-{4-[5-(2H-1,3-benzodioxol-5-yl)-6-cyclopropyl-7H-pyrrolo[2,3-c]pyridazin-3-yl]butyl}-N-[(6-methylpyridin-3-yl)methyl]-1H-1,2,3-triazole-4-carboxamide]
IC50 [1]: < 100 nM
EC50 (A549 cells): < 100 nM

O=C(NCc1ccccn1)c1cn(CCCCc2cc3cc(-c4ccccc4F)[nH]c3nn2)nn1 [Example 134, 1-(4-(6-(2-fluorophenyl)-7H-pyrrolo[2,3-c]pyridazin-3-yl)butyl)-N-(pyridin-2-ylmethyl)-1H-1,2,3-triazole-4-carboxamide]
IC50 [1]: < 100 nM
EC50 (A549 cells): < 100 nM
